Consider 19 molecules from patent US20120220590A1, “NOVEL COMPOUNDS AS MODULATORS OF GLUCOCORTICOID RECEPTORS” (priority 2009, published 2012).

Assay [1] concerns LPS-induced IL-6 secretion in U 937 cells. Briefly: Modulation of proinflammatory cytokine production in U 937 cells (transrepression): IL-6. Conditions: Homo sapiens, U 937 cells stimulated with 5 μg/mL LPS, ELISA; for inhibition at 0.1 µM: 0.1 μM test compound; for inhibition at 1 µM: 1 μM test compound. In kind it is cell-based. The procedure: (§1) VI) Modulation of Proinflammatory Cytokine Production in U 937 Cells (Determination of Transrepression)
(§2) Testing of compounds in GR-mediated inhibition of LPS-induced TNFα, IL-1β, and IL-6 secretion in U 937 cells.
(§3) Differentiated U 937 cells are incubated for 2 days in RPMI1640 medium containing 10% CCS (charcoal treated calf serum). The cells are transferred to 96 well plates and stimulated with 5 μg/mL LPS (dissolved in PBS) in the presence or absence of dexamethasone or test compound (dissolved in DMSO, final concentration 0.2%). Control cells are treated with 0.2% DMSO. After required incubation periods, proinflammatory cytokine(s) concentrations in the cell supernatant are measured by ELISA, using the “BD OptEIA™ Set human TNF, BD OptEIA™ Set human IL-6, BD OptEIA™ Set human IL-1β.
(§4) TNF α inhibition induced by Dexamethasone at 10 nM concentration was considered as 100% and % inhibition of the test NCE was determined as compared to Dexamethasone. Dose-response curves are calculated by fitting to a non-linear 4-parameter logistic model, and absolute EC50 (or IC50) values for the determination of dissociation are derived from these curves and the corresponding curve for dexamethasone on the same experimental occasion.
(In general: In an ELISA, binding on a coated surface is turned into a signal by an enzyme label.)

In assay [2] the test system is LPS-induced TNFα secretion in U 937 cells. Briefly: Modulation of proinflammatory cytokine production in U 937 cells (transrepression): TNFα. Particulars: Homo sapiens, U 937 cells stimulated with 5 μg/mL LPS, inhibition by Dexamethasone at 10 nM considered as 100%, read-out: % TNF α Inhibition; for inhibition at 0.1 µM: 0.1 μM test compound; for inhibition at 1 µM: 1 μM test compound. Format: cell-based. The procedure: as §1, §2, §3, §4

For orientation: inhibition means the drop in the measured response relative to a control, in per cent. Turning to `Cc1c(NS(C)(=O)=O)cccc1N(Cc1ccc(C#N)cc1)Cc1ccc(Oc2cc(CO)cc(OCCc3cccnc3)c2)cc1` [Example 76, N-(3-((4-cyanobenzyl)(4-(3-(hydroxymethyl)-5-(2-(pyridin-3-yl)ethoxy)phenoxy)benzyl)amino)-2-methylphenyl)methanesulfonamide], the inhibition at 0.1 µM in assay [1] worked out at 85.7%; in assay [2], 87.6%. The inhibition at 1 µM in assay [1] was determined as 88.8%; in assay [2], 86.2%.

Take `CNC(=O)c1cc(OCCc2cccnc2)cc(Oc2ccc(CN(Cc3ccc(C#N)cc3)c3cccc(NS(C)(=O)=O)c3C)cc2)c1` [Example 74, 3-(4-(((4-cyanobenzyl)(2-methyl-3-(methylsulfonamido)phenyl)amino)methyl)phenoxy)-N-methyl-5-(2-(pyridin-3-yl)ethoxy)benzamide]: in assay [1], the inhibition at 0.1 µM came to 100% and the inhibition at 1 µM is 100%. Moreover, in assay [2], the inhibition at 0.1 µM was 90.4% and the inhibition at 1 µM worked out at 100%.

For the molecule `Cc1c(NS(C)(=O)=O)cccc1N(Cc1ccc(C#N)cc1)Cc1ccc(Oc2cccc(OCCc3cccs3)c2)cc1` [Example 35, N-(3-((4-cyanobenzyl)(4-(3-(2-(thiophen-2-yl)ethoxy)phenoxy)benzyl)amino)-2-methylphenyl)methanesulfonamide], in assay [1], the inhibition at 0.1 µM worked out at 28% and the inhibition at 1 µM came out at 54%. Further, in assay [2], the inhibition at 0.1 µM came to 41.8% and the inhibition at 1 µM came out at 83.4%.

Regarding `Cc1c(NS(C)(=O)=O)cccc1N(Cc1ccccc1)Cc1ccc(Oc2cccc(OCCc3cccnc3)c2)cc1` [Example 78, N-(3-(benzyl(4-(3-(2-(pyridin-3-yl)ethoxy)phenoxy)benzyl)amino)-2-methylphenyl)methanesulfonamide], the values for the inhibition at 0.1 µM in assay [1] and in assay [2] were 62% and 67.9%, respectively. Moreover, the inhibition at 1 µM in assay [1] turned out to be 74%; in assay [2], 83.9%.

On to `Cc1c(NS(C)(=O)=O)cccc1N(Cc1ccc(Oc2cc(CO)cc(OCC3CCOC3)c2)cc1)Cc1cccc(C#N)c1` (centres unmarked) [Example 80, N-(3-((3-cyanobenzyl)(4-(3-(hydroxymethyl)-5-((tetrahydrofuran-3-yl)methoxy)phenoxy)benzyl)amino)-2-methylphenyl)methanesulfonamide], for which, in assay [2], the inhibition at 0.1 µM came out at 84.1% and the inhibition at 1 µM came out at 86.5%.

Regarding `CCS(=O)(=O)Nc1cccc(N(Cc2ccc(Oc3cc(CO)cc(OCC4CCOC4)c3)cc2)Cc2cccc(C#N)c2)c1C` (centres unmarked) [Example 86, N-(3-((3-cyanobenzyl)(4-(3-(hydroxymethyl)-5-((tetrahydrofuran-3-yl)methoxy)phenoxy)benzyl)amino)-2-methylphenyl)ethanesulfonamide], in assay [2], the inhibition at 0.1 µM turned out to be 95.5% and the inhibition at 1 µM stood at 95.6%.

On to `Cc1c(NS(C)(=O)=O)cccc1N(Cc1ccc(C#N)cc1)Cc1ccc(Oc2cc(CO)cc(OCc3cccnc3)c2)cc1` [Example 79, N-(3-((4-cyanobenzyl)(4-(3-(hydroxymethyl)-5-(pyridin-3-ylmethoxy)phenoxy)benzyl)amino)-2-methylphenyl)methanesulfonamide], for which, in assay [1], the inhibition at 0.1 µM is 97% and the inhibition at 1 µM came out at 97%. In assay [2], the inhibition at 0.1 µM was 87.7% and the inhibition at 1 µM turned out to be 88.2%.

With `Cc1c(NS(C)(=O)=O)cccc1N(Cc1ccc(C#N)cc1)Cc1ccc(Oc2cccc(OCC3CCOC3)c2)cc1` (centres unmarked) [Example 58, N-(3-((4-cyanobenzyl)(4-(3-((tetrahydrofuran-3-yl)methoxy)phenoxy)benzyl)amino)-2-methylphenyl)methanesulfonamide], the inhibition at 0.1 µM amounted to 45% in assay [1] and 13.1% in assay [2]. Besides, the inhibition at 1 µM is 76% in assay [1] and 55% in assay [2].

For `CCS(=O)(=O)Nc1cccc(N(Cc2ccc(C#N)cc2)Cc2ccc(Oc3cc(CO)cc(OCc4cccnc4)c3)cc2)c1C` [Example 85, N-(3-((4-cyanobenzyl)(4-(3-(hydroxymethyl)-5-(pyridin-3-ylmethoxy)phenoxy)benzyl)amino)-2-methylphenyl)ethanesulfonamide], in assay [2], the inhibition at 0.1 µM came out at 88.5% and the inhibition at 1 µM was 91.2%.

Regarding `Cc1c(NS(C)(=O)=O)cccc1N(Cc1ccc(Oc2cc(OCCc3cccnc3)cc(C(N)=O)c2)cc1)Cc1ccc(C#N)c(F)c1` [Example 83, 3-(4-(((4-cyano-3-fluorobenzyl)(2-methyl-3-(methylsulfonamido)phenyl)amino)methyl)phenoxy)-5-(2-(pyridin-3-yl)ethoxy)benzamide], in assay [1], the inhibition at 0.1 µM turned out to be 95.7% and the inhibition at 1 µM worked out at 95.1%. In addition, in assay [2], the inhibition at 0.1 µM stood at 93.4% and the inhibition at 1 µM was 94.5%.

For `Cc1c(NS(C)(=O)=O)cccc1N(Cc1ccc(C#N)cc1)Cc1ccc(Oc2cc(C#N)cc(OCCc3cccnc3)c2)cc1` [Example 84, N-(3-((4-(3-cyano-5-(2-(pyridin-3-yl)ethoxy)phenoxy)benzyl)(4-cyanobenzyl)amino)-2-methylphenyl)methanesulfonamide], in assay [1], the inhibition at 0.1 µM came out at 95% and the inhibition at 1 µM was 94.9%. Further, in assay [2], the inhibition at 0.1 µM is 94.6% and the inhibition at 1 µM amounted to 93.7%.

`Cc1c(NS(C)(=O)=O)cccc1N(Cc1ccc(C#N)cc1)Cc1ccc(Oc2cc(OCCc3cccnc3)cc(C(N)=O)c2)cc1` [Example 75, 3-(4-(((4-cyanobenzyl)(2-methyl-3-(methylsulfonamido)phenyl)amino)methyl)phenoxy)-5-(2-(pyridin-3-yl)ethoxy)benzamide]: in assay [1], the inhibition at 0.1 µM was 98.2% and the inhibition at 1 µM came to 100%. Also, in assay [2], the inhibition at 0.1 µM was found to be 75.3% and the inhibition at 1 µM turned out to be 100%.

In the case of `CCS(=O)(=O)Nc1cccc(N(Cc2ccc(Oc3cccc(OCC4CCOC4)c3)cc2)Cc2cccc(C#N)c2)c1C` (centres unmarked) [Example 16, N-(3-((3-cyanobenzyl)(4-(3-((tetrahydrofuran-3-yl)methoxy)phenoxy)benzyl)amino)-2-methylphenyl)ethanesulfonamide], the results for the inhibition at 0.1 µM in assay [1] and in assay [2] were 62% and 63.2%, respectively. Further, the values for the inhibition at 1 µM in assay [1] and in assay [2] were 81% and 87.4%, respectively.

On to `Cc1c(NS(C)(=O)=O)cccc1N(Cc1ccc(Oc2cccc(OCC3CCOC3)c2)cc1)Cc1cccc(C#N)c1` (centres unmarked) [Example 55, N-(3-((3-cyanobenzyl)(4-(3-((tetrahydrofuran-3-yl)methoxy)phenoxy)benzyl)amino)-2-methylphenyl)methanesulfonamide], for which, in assay [1], the inhibition at 0.1 µM amounted to 55% and the inhibition at 1 µM was 76%. In assay [2], the inhibition at 0.1 µM was found to be 1.54% and the inhibition at 1 µM was -1.12%.

On to `CCS(=O)(=O)Nc1cccc(N(Cc2ccc(C#N)cc2)Cc2ccc(Oc3cccc(OCc4ccoc4)c3)cc2)c1C` [Example 20, N-(3-((4-cyanobenzyl)(4-(3-(furan-3-ylmethoxy)phenoxy)benzyl)amino)-2-methylphenyl)ethanesulfonamide], for which, in assay [1], the inhibition at 0.1 µM was determined as 92.2% and the inhibition at 1 µM was found to be 97.9%. In addition, in assay [2], the inhibition at 0.1 µM is 88.9% and the inhibition at 1 µM was found to be 93.6%.

Turning to `Cc1c(NS(C)(=O)=O)cccc1N(Cc1ccc(Oc2cccc(OCCc3cccnc3)c2)cc1)Cc1cccc(C#N)c1` [Example 62, N-(3-((3-cyanobenzyl)(4-(3-(2-(pyridin-3-yl)ethoxy)phenoxy)benzyl)amino)-2-methylphenyl)methanesulfonamide], in assay [1], the inhibition at 0.1 µM turned out to be 68.4% and the inhibition at 1 µM was determined as 90.8%. Moreover, in assay [2], the inhibition at 0.1 µM was found to be 52.6% and the inhibition at 1 µM was 83.7%.

In the case of `Cc1c(NS(C)(=O)=O)cccc1N(Cc1ccc(C#N)cc1)Cc1ccc(Oc2cc(C#N)cc(OCC3CCOC3)c2)cc1` (centres unmarked) [Example 82, N-(3-((4-(3-cyano-5-((tetrahydrofuran-3-yl)methoxy)phenoxy)benzyl)(4-cyanobenzyl)amino)-2-methylphenyl)methanesulfonamide], the inhibition at 0.1 µM in assay [1] amounted to 60%; in assay [2] it was 50%. Moreover, the inhibition at 1 µM came to 83% in assay [1] and 71.1% in assay [2].

As for `CCS(=O)(=O)Nc1cccc(N(Cc2ccc(Oc3cccc(OCCc4cccnc4)c3)cc2)Cc2cccc(C#N)c2)c1C` [Example 60, N-(3-((3-cyanobenzyl)(4-(3-(2-(pyridin-3-yl)ethoxy)phenoxy)benzyl)amino)-2-methylphenyl)ethanesulfonamide], the inhibition at 0.1 µM in assay [1] was 90%; in assay [2], 95.1%. The inhibition at 1 µM came out at 91.7% in assay [1] and 96.3% in assay [2].

In the case of `Cc1c(NS(C)(=O)=O)cccc1N(Cc1ccc(C#N)cc1)Cc1ccc(Oc2cc(CO)cc(OCC3CCOC3)c2)cc1` (centres unmarked) [Example 81, N-(3-((4-cyanobenzyl)(4-(3-(hydroxymethyl)-5-((tetrahydrofuran-3-yl)methoxy)phenoxy)benzyl)amino)-2-methylphenyl)methanesulfonamide], in assay [2], the inhibition at 0.1 µM came to 88.9% and the inhibition at 1 µM was 88.2%.
